# Reference: US20250346571A1, “BICYCLIC DERIVATIVE PARP INHIBITOR AND USE THEREOF” (XIZANG HAISCO PHARMACEUTICAL CO., LTD., priority 2022, published 2025)
# Columns and labels:
# [1] = Pharmacokinetic test in mice; format: in vivo, Balb/c mice
# Protocol: 4.1 Experimental animal: male Balb/c mice, 20-25 g, 12 mice/compound, purchased from Chengdu Ddossy Experimental Animals Co., Ltd.
# 4.2 Experimental design: on the day of the test, 60 Balb/c mice were randomly grouped according to their body weights. The animals were fasted with water available for 12 to 14 h one day before the administration and were fed 4 h after the administration.
# (§1) Before and after the administration, 0.06 mL ofblood was taken from the orbit of the animals under isoflurane anesthesia and placed in an EDTAK2 centrifuge tube. The blood was centrifuged at 5000 rpm and 4° C. for 10 min to collect plasma. The blood collection time points for the intravenous administration group and intragastric administration group were 0, 5 min, 15 min, 30 min, 1 h, 2 h, 4 h, 6 h, 8 h, and 24 h. The brain tissues were collected at 30 min, 2 h and 24 h after administration of compounds 12, 15 and 18, respectively. The brain tissues were collected 24 hours after administration of compounds 2 and 5, rinsed with cold physiological saline to remove the residual blood on the surface, drained out and then homogenized. Before analysis and detection, all samples were stored at −80° C. The samples were analyzed quantitatively by LC-MS/MS.
# [2] = Pharmacokinetic test in beagle dogs; format: in vivo
# Protocol: 5.1 Experimental animal: male beagle dogs, about 8-11 kg, 6 beagle dogs/compound, purchased from Beijing Marshall Biotechnology Co., Ltd.
# 5.2 Test method: on the day of the experiment, 6 beagle dogs were randomly grouped according to their body weights. The animals were fasted with water available for 12 to 14 h one day before the administration and were fed 4 h after the administration. The administration was performed according to Table 7.
# Before and after the administration, 1 ml of blood was taken from the jugular veins or limb veins, and placed in an EDTAK2 centrifuge tube. The blood was centrifuged at 5000 rpm and 4° C. for 10 min to collect plasma. The blood collection time points for the intravenous administration group and intragastric administration group were 0, 5 min, 15 min, 30 min, 1 h, 2 h, 4 h, 6 h, 8 h, 10 h, 12 h, 24 h and 48 h. Before analysis and detection, all samples were stored at −80° C. The samples were analyzed quantitatively by LC-MS/MS.
# [3] = Pharmacokinetic test in rats; format: in vivo, SD rats
# Protocol: 3.1 Experimental animal: male SD rats, about 220 g, 6-8 weeks old, 6 rats/compound, purchased from Chengdu Ddossy Experimental Animals Co., Ltd.
# 3.2 Experimental design: on the day of the experiment, 30 SD rats were randomly grouped according to their body weights. The animals were fasted with water available for 12 to 14 h one day before the administration and were fed 4 h after the administration.
# as §1, with “administration, 0.15 ml of blood” for “administration, 0.06 mL ofblood”, “8 h” for “8 h,”, “collected” for “collected at 30 min, 2 h and 24 h after administration of compounds 12, 15 and 18, respectively. The brain tissues were collected”, “after administration,” for “after administration of compounds 2 and 5,”
# MDA-MB-436 cells = assay: MDA-MB-436 cell activity test (CellTiter-Glo, 7 days); format: cell-based; details: Homo sapiens
# Protocol: Breast tumor cells MDA-MB-436 were purchased from ATCC, the culture medium was Leibovitz's L-15+10% FBS, and the cells were cultured in a CO2-free incubator at 37° C. On day 1, the cells in the exponential growth phase were collected, and the cell suspension was adjusted to 4000 cells/135 μL with the culture medium. 135 μL of the cell suspension was added to each well of a 96-well cell culture plate and incubated overnight. On day 2, compounds at different concentrations were added, and the plate was placed in the incubator and incubated for 7 days. After the incubation was completed, according to operation instructions for a CellTiter-Glo kit (Promega, G7573), 75 μL of CTG solution, which was already pre-melted and equilibrated to room temperature, was added to each well, and the mixture was uniformly mixed for 2 min using a microplate shaker. The plate was placed at room temperature for 10 min, and then […] were measured using an Envision2104 plate reader (PerkinElmer). The inhibition rate was calculated using formula (1), where RLUcompound was the readout of the drug treated group, RLUcontrol was the average value of the vehicle control group, and RLUblank was the average value of the cell-free well. The IC50 value was calculated using GraphPad Prism software
# [4] = male, Balb/c, mouse, iv, mice, i.v. 2.5 mg/kg, plasma
# [5] = male, dog, iv, beagle dogs, i.v. (0.2 mg/kg), plasma
# [6] = male, SD, rat, iv, rats, i.v. 2.5 mg/kg, plasma
compound,measurement,setting,value
"O=C(NC1CC1)c1ccc(N2CCN(Cc3ccc4nc(C(F)F)c(=O)[nH]c4c3F)CC2)c(F)n1 [Compound 12, N-cyclopropyl-5-(4-((2-(difluoromethyl)-5-fluoro-3-oxo-3,4-dihydroquinoxalin-6-yl)methyl)piperazin-1-yl)-6-fluoropicolinamide]",pharmacokinetic characteristics in mice,[1]; conclusion in words,good pharmacokinetic characteristics
same,AUC(0-t),[1]; [4],19000 ± 3590 ng·h/mL
same,clearance,[1]; [4],2.16 ± 0.31 mL/min/kg
same,Vd,"[1]; male, Balb/c, mouse, iv, mice, i.v. 2.5 mg/kg, plasma, read-out: Vdss",0.42 ± 0.017 L/kg
same,bioavailability,"[1]; male, Balb/c, mouse, plasma, po, mice, i.g. 10 mg/kg",≥ 98%
same,AUC(0-t),"[1]; male, Balb/c, mouse, po, mice, i.g. 10 mg/kg, plasma",80800 ng·h/mL
same,pharmacokinetic characteristics in dogs,[2]; conclusion in words,good pharmacokinetic characteristics
same,AUC(0-t),[2]; [5],1950 ± 474 ng·h/mL
same,clearance,[2]; [5],3.47 ± 0.98 mL/min/kg
same,Vd,"[2]; male, dog, iv, beagle dogs, i.v. (0.2 mg/kg), plasma, read-out: Vdss",1.52 ± 0.45 L/kg
same,bioavailability,"[2]; male, dog, plasma, po, beagle dogs, i.g. (3 mg/kg)",≥ 98%
same,AUC(0-t),"[2]; male, dog, po, beagle dogs, i.g. (3 mg/kg), plasma",19000 ± 2890 ng·h/mL
same,pharmacokinetic characteristics in rats,[3]; conclusion in words,good pharmacokinetic characteristics
same,Kp at 24 h,"[3]; male, SD, rat, brain/plasma, intravenous, 2.5 mg/kg, rats, 24 h after administration, read-out: Brain/Plasma Ratio (24 h)",1.5
same,AUC(0-t),[3]; [6],14500 ± 4760 ng·h/mL
same,clearance,[3]; [6],3.13 ± 1.2 mL/min/kg
same,Vd,"[3]; male, SD, rat, iv, rats, i.v. 2.5 mg/kg, plasma, read-out: Vdss",0.631 ± 0.12 L/kg
same,bioavailability,"[3]; male, SD, rat, plasma, po, rats, i.g. 10 mg/kg",≥ 98%
same,AUC(0-t),"[3]; male, SD, rat, po, rats, i.g. 10 mg/kg, plasma",63300 ± 19600 ng·h/mL
same,IC50,"MDA-MB-436 cells; MDA-MB-436, 168 h, 7 days incubation",0.0102 µM
same,inhibition at 10 µM,"MDA-MB-436 cells; 10 μM, MDA-MB-436 cells, read-out: Max inh. % 10 μM",74.5%
